Values after ≈ are worked out from the molar mass of the structure shown. Read-outs that look alike come from different tables or passages of the source.

Assay [1] has as its system B. multivorans C1962 (LMG 16665). Nature of the assay: General MIC protocol, Gram negative. The settings on record: Burkholderia multivorans, LMG16665. Type of assay: cell-based. The gist of the method: (§1)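 Compound was prepared at 64 μg/ml in water, serially halved across the plate and diluted twofold again by added inoculum. Final bacterial density was 5×10^5/ml in TSB. After 20 hours at 37° C, wells were scored for growth by OD600.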

Assay [2] relates to A. baumannii UKA7. Nature of the assay: General MIC protocol, Gram negative. The class given is cell-based. The settings on record: Acinetobacter baumannii. The method, boiled down: as §1
For assay [3], the system named is B. cepacia NCTC 10743. Description: General MIC protocol, Gram negative. The class given is cell-based. The settings on record: Burkholderia cepacia, NCTC10743. The method, boiled down: as §1
Assay [4] has as its system B. cepacia CEP509 (LMG 18821). Description: General MIC protocol, Gram negative. Type of assay: cell-based. The settings on record: Burkholderia cepacia, LMG18821. The gist of the method: as §1
In assay [5] the test system is B. cenocepa K56-2. Nature of the assay: General MIC protocol, Gram negative. The class given is cell-based. The gist of the method:
as §1

In assay [6] the test system is A. baumannii W1. Description: General MIC protocol, Gram negative. The class given is cell-based. The settings on record: Acinetobacter baumannii. The gist of the method:
as §1

For assay [7], the system named is A. baumannii NCTC 13424. Description: General MIC protocol, Gram negative. Type of assay: cell-based. The settings on record: Acinetobacter baumannii, NCTC13424. The gist of the method: as §1
For assay [8], the system named is B. cepacia ATCC 17765. Description: General MIC protocol, Gram negative. The class given is cell-based. The settings on record: Burkholderia cepacia, ATCC17765. The method, boiled down: as §1
Assay [9] deals with B. multivorans C1576 (LMG 16660). Nature of the assay: General MIC protocol, Gram negative. Type of assay: cell-based. The settings on record: Burkholderia multivorans, LMG16660. The method, boiled down: as §1
For assay [10], the system named is K. pneumonia NCTC 46704. Nature of the assay: General MIC protocol, Gram negative. Type of assay: cell-based. The settings on record: Klebsiella pneumoniae, NCTC46704. The gist of the method: as §1
Assay [11] concerns A. baumannii UKA2. Nature of the assay: General MIC protocol, Gram negative. The class given is cell-based. The settings on record: Acinetobacter baumannii. The method, boiled down: as §1
The test system of assay [12] is A. baumannii NCTC 13302. Description: General MIC protocol, Gram negative. The class given is cell-based. The settings on record: Acinetobacter baumannii, NCTC13302. The gist of the method:
as §1

Assay [13] relates to A. baumannii ADP1. Nature of the assay: General MIC protocol, Gram negative. The class given is cell-based. The settings on record: Acinetobacter baumannii. The gist of the method: as §1
For assay [14], the system named is B. cepacia LMG 17997. Nature of the assay: General MIC protocol, Gram negative. Type of assay: cell-based. The settings on record: Burkholderia cepacia, LMG17997. The method, boiled down: as §1
For assay [15], the system named is NCTC 13424. Nature of the assay: Effect of efflux pump inhibitors (EPIs) on MIC. Type of assay: cell-based, A. bauamnnii. The protocol:
(§2) 1. Grow up cultures of bacterial strains to be tested overnight.
(§3) 2. Dilute down overnight cultures to concentration of 1×10^6 bacteria/ml (OD0.01) in Tryptic soy broth (TSB).
(§4) 3. Add 100 μl of TSB media to column 2-column 12 in 96 well plate (keeping column 1 clear).
4. Make up compound to a concentration of 64 μg/ml in water.
(§5) 5. Add 100 μl of antibiotic solution to the 1st and 2nd columns.
6. Using a multichannel pipette take 100 μl from the 2nd column wells and pipette into 3rd column wells and repeat down the 96 well plate (remember to include controls i.e. uninfected media and media with no antibiotic).
7. To each well (except uninfected control row H) add 50 μl/well of EPI at 4× final concentration in TSB.
9. In wells used to test the effect of the EPI carbonyl cyanide 3-chlorophenylhydrazone (CCCP) the CCCP is added at 10 μg/ml final concentration.
10. In wells used to test the effect of the EPI phenylalanine-arginine β-naphthylamide (PABN) the PABN is added at 25 μg/ml final concentration.
11. In wells used to test the effect of the PABN+Mg, the PABN is added at 25 μg/ml final concentration, with 1 mM MgSO4 in TSB.
12. Wrap plate with parafilm to prevent evaporation.
13. Leave at desired temperature (37° C. unless specified elsewhere) for 20 hours.
14. Next day check plates for growth and measure optical density (i.e. absorbance) at a wavelength of 600 nm (OD600).
Compound KMR-14-33 was tested against a range of bacterial species using the above protocol. Compound PP-A148 was also tested against a more limited range of bacterial species using the above protocol. For KMR-14-33 measurements were carried out for the compound alone, for the compound plus CCCP, for the compound plus PABN and for the compound plus PABN and plus Mg. For PP-A148 measurements were carried out for the compound alone and for the compound plus PABN.

Assay [16] has as its system Klebsiella KP 342. Nature of the assay: General MIC protocol, Gram negative. Type of assay: cell-based. The settings on record: Klebsiella, KP342. The protocol:
General Minimum Inhibitory Concentration (MIC) Protocol
as §2, §3, §4
4. Make up compound to a concentration of 64 μg/ml in water (or alternatively to twice the chosen maximum concentration to be tested).
as §5
6. Using a multichannel pipette take 100 μl from the 2nd column wells and pipette into 3rd column wells and repeat down the 96 well plate (remembering to include controls i.e. uninfected media and media with no antibiotic).
7. To each well (except uninfected control row H) add 100 μl of bacterially infected media at a concentration of 1×10^6/ml.
8. This dilutes down the concentration of the antibiotic by half (top dose is therefore 32 μg/ml in column 1) and also gives you a starting bacterial concentration of 5×10^5/ml.
9. Wrap plate with parafilm to prevent evaporation.
10. Leave at desired temperature (37° C. unless specified elsewhere) for 20 hours.
11. Next day check plates for growth and measure optical density (i.e. absorbance) at a wavelength of 600 nm (OD600).
An example of such a plate is shown in FIG. 1 where column A represents wells that receive the top dose 100 μl; column B represents wells that receive the top dose 100 μl+100 μl TSB; and column C represents wells that receive 100 μl TSB. Row H which is marked by a box labelled D represents a blank where the cells receive no bacteria.
The minimum inhibitory concentration (MIC) was measured using the general MIC protocol given above.

As usually defined, the MIC is the lowest concentration found to suppress growth. Regarding `COc1cc2c(cc1OCCCC(=O)Nc1cc(C(=O)Nc3ccc4sc(C(=O)N(C)C)cc4c3)n(C)c1)N=C[C@@H]1CCCN1C2=O` [KMR-14-33, (S)—N-(2-(dimethylcarbamoyl)benzo[b]thiophen-5-yl)-4-(4-((7-methoxy-5-oxo-2,3,5,11a-tetrahydro-1H-benzo[e]pyrrolo[1,2-a][1,4]-diazepin-8-yl)oxy)butanamido)-1-methyl-1H-pyrrole-2-carboxamide], the MIC was 2 µg/mL (≈ 3.05 µM) in assay [1]; 0.5 µg/mL (≈ 0.761 µM) in assay [2]; 1 to 2 µg/mL (≈ 1.52 to 3.05 µM) in assay [3]; 2 µg/mL (≈ 3.05 µM) in assay [4]; 2 µg/mL (≈ 3.05 µM) in assay [5]; 1 µg/mL (≈ 1.52 µM) in assay [6]. Besides, the MIC was found to be 0.5 µg/mL (≈ 0.761 µM) in [7]; 0.125 µg/mL (≈ 0.19 µM) in assay [8]; 1 µg/mL (≈ 1.52 µM) in assay [9]; 1 µg/mL (≈ 1.52 µM) in assay [10]; 0.5 µg/mL (≈ 0.761 µM) in [11]; 0.25 µg/mL (≈ 0.381 µM) in assay [12]. The MIC in assay [13] stood at 0.125 µg/mL (≈ 0.19 µM); in assay [14], 0.125 µg/mL (≈ 0.19 µM); in assay [15] (read-out: +CCCP MIC), 0.25 µg/mL (≈ 0.381 µM); in assay [15] (read-out: Control with no EPI MIC), 0.5 µg/mL (≈ 0.761 µM). Moreover, the “+PABN MIC” value in [15] (NCTC 13424, PABN at 25 μg/ml) is 0.125 µg/mL. In addition, the “+PABN + Mg MIC” value in assay [15] (NCTC 13424, PABN at 25 μg/ml with 1 mM MgSO4) stood at 0.25 µg/mL.
Take `COc1cc2c(cc1OCCCC(=O)Nc1cc(C(=O)Nc3ccc4oc(C(=O)N5CCSCC5)cc4c3)n(C)c1)N=C[C@@H]1CCCN1C2=O` [PP-A148, (S)-4-(4-((7-methoxy-5-oxo-2,3,5,11a-tetrahydro-1H-benzo-[e]pyrrolo[1,2-a][1,4]diazepin-8-yl)oxy)butanamido)-1-methyl-N-(2-(thiomorpholine-4-carbonyl)benzofuran-5-yl)-1H-pyrrole-2-carboxamide]: the MIC in assay [16] fell in the range of 4 to 8 µg/mL (≈ 5.72 to 11.4 µM).

The values above are taken from patent publication US10640507B2, “PBD antibacterial agents” (KING'S COLLEGE LONDON, priority 2015, dated 2020).
